Data published in patent US5051417A, “Indolythiadiazines for treating heart failure” (Les Laboratoires Beecham S.A., priority 1988, dated 1991).

Assays:
canine cardiac PDE, CAM = assay: Canine cardiac PDE inhibition, CAM; type: biochemical; settings: n in table
canine cardiac PDE, CGI = target: T1, canine cardiac PDE, CGI (Canis lupus familiaris, UniProt A0A8I3NYE0); assay: Canine cardiac PDE inhibition, CGI; type: biochemical; settings: n in table
T1 construct: CANINE CARDIAC PDE; from tissue; host or cells: dog heart
T1 sequence (A0A8I3NYE0 1-1135): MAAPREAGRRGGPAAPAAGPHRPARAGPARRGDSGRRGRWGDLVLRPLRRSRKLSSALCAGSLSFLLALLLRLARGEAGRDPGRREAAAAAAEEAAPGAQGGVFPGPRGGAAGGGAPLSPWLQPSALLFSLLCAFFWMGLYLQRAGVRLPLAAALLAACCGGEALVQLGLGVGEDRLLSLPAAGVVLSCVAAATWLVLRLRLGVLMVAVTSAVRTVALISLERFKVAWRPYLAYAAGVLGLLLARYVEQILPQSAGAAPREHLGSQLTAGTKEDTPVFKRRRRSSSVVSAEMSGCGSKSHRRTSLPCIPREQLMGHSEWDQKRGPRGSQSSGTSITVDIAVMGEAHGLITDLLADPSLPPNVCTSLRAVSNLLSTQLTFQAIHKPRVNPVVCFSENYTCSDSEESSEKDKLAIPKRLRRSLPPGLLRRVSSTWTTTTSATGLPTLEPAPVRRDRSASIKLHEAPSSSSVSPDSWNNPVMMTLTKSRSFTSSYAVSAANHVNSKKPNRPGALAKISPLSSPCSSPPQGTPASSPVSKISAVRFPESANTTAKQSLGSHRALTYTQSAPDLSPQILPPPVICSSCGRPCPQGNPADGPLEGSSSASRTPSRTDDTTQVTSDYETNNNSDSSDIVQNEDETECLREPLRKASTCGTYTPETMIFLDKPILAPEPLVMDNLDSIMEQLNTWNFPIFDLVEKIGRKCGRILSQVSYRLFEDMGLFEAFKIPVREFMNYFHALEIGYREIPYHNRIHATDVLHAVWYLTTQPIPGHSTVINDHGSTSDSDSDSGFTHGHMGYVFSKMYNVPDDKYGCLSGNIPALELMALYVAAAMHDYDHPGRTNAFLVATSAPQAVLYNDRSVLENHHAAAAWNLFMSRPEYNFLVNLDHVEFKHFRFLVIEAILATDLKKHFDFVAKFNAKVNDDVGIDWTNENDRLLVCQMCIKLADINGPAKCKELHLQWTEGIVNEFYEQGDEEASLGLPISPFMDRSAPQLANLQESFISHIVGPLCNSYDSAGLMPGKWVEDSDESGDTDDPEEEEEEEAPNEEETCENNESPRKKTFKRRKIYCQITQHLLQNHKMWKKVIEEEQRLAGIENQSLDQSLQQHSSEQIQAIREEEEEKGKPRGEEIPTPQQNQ

[1] = tested on: canine cardiac myofibrillar Ca++-dependent Mg++-ATPase; assay: Measurement of myofibrillar Ca++-dependent Mg++-ATPase activity on canine cardiac myofibrils; type: biochemical; settings: 30 μM, pH 7.0, 21° C.; for max (percent change of maximal ATPase activity): pCa=5.47
Experimental: 1. Measurement of myofibrillar Ca++-dependent Mq++-ATPase activity The effect on myofibrillar Ca++sensitivity and on maximal activity of myofibrillar Ca++-dependent Mg++-ATPase was determined on canine cardiac myofibrils. (a) Contractile protein preparation Cardiac myofibrils free of membrane contaminants were prepared from left ventricular tissue of dog hearts using a modification of the method described by SOLARO et al, Biochem. Biophys. Acta, 245, 259-262, (1971). Before centrifugation, the heart homogenate was filtered through gauze. After Triton X-100 treatments, the myofibrillar fraction was washed once by resuspension and centrifugation in 10 volumes of 1 mM EGTA, […], 30 mM imidazole, 2 mM MgCl2, pH 7.0. The pellet was then washed three times in 10 volumes of the same buffer without EGTA. Before the last centrifugation, the suspension of myofibrils was filtered through a stainless steel sieve with 0.25 mm meshes. Myofibrils were kept in pellet overnight. Before use, the pellet was suspended in a small amount of buffer, the protein concentration was determined by the method of BRADFORD M., Anal. Biochem., 1976, 72, 248 and adjusted in order to have a concentration between 6 and 7 mg/ml. (b) Myofibrillar ATPase activity Ca++-dependent myfibrillar ATPase activity was determined at 21° C., pH 7.0, by measuring the rate of release of inorganic phosphate. All assays were performed within 24hrs. of final purification, using the method described by SOLARO and […]., 51. 290-4,(1982). Reaction mixtures (4 ml) containing 0.6-0.7 mg/ml myofibrillar protein, 80mM KCl, 20 mM imidazole, 3 mM MgCl2, 1 mM EGTA, the desired amount of CaCl2, and the indicated concentration of drug or appropriate vehicle were preincubated for 6 min. prior to assay. The amount of CaCl2 was varied between 0 and 0.9 mM and the pCa (-log free Ca++) computed using 2.514×10^6 M^-1 as the apparent affinity of Ca++for EGTA at pH 7.0. Reactions were initiated by the addition of Na2 ATP to final concentration of 2 mM. After an incubation period of 12 min., reactions were quenched by the addition of an equal volume of ice-cold 10% trichloroacetic acid. The protein was pelleted by centrifugation (2000 g, 15 min.) and Pi was assayed in the supernatant fraction using a modification of the method described by LANZETTA et al, Anal. Biochem., 100, 95-97, (1979). The following solutions were prepared: (1) 3.7% ammonium heptamolybdate in 0.12 N H2 SO4 (2) 0.074% malachite green oxalate in 1% polyvinylic alcohol. The colour reagent was prepared by mixing an equal volume of solution (1) and (2) 15 min. before the assay. For the assay, 1,700 μl of 1% H2 SO4 and 1 ml of colour reagent were added to 100 μl of sample. Colour development occurred at room temperature for 30 min. and was quenched by the addition of 200 μl of 1M tri-potassium citrate. The absorbance was measured at 620 millimicrons. The effect of each compound, tested at the indicated concentration, on the relation between pCa and percent activation was determined taking 100% for the maximum ATPase activity obrained with vehicle alone. The effect on Ca++sensitivity was quantified by measuring the shift of the pCa giving 50% of the maximal control ATPase activity. The effect on maximal ATPase activity was expressed as the percent change of ATPase activity for pCa=5.47. Mean effects on myofibrillar ATPase activity were obtained from 1 to 5 preparations, (compounds tested at 2×10^-4 M).

anaesthetised dog = assay: Cardiotonic activity in the dog (haemodynamics); type: in vivo, dog (male Beagle); settings: i.v.

CC1SC(=O)NN=C1c1ccc2c(c1)C(=Cc1ccncc1)C(=O)N2 (centres unmarked) [Example 18]
IC50 (canine cardiac PDE, CAM): 4000 nM | IC50 (canine cardiac PDE, CGI): 1900 nM | max (percent change of maximal ATPase activity) [1]: -28 ± 4% | pCa (shift of the pCa giving 50% of the maximal control ATPase activity; Ca++ sensitivity) [1]: +0.04 ± 0.08

CC1SC(=O)NN=C1c1ccc2c(c1)C(=Cc1ccccc1)C(=O)N2 (centres unmarked) [Example 10, 1,3-Dihydro-5-(3,6-dihydro-6-methyl-2-oxo-2H-1,3,4-thiadiazin-5-yl)-3-phenylmethylene-2H-indol-2-one]
IC50 (canine cardiac PDE, CAM): 20000 nM | IC50 (canine cardiac PDE, CGI): 350 nM | max (percent change of maximal ATPase activity) [1]: -13 ± 3% | pCa (shift of the pCa giving 50% of the maximal control ATPase activity; Ca++ sensitivity) [1]: +0.43 ± 0.07

CC1SC(=O)NN=C1c1ccc2c(c1)C(=Nc1ccc(N(C)C)cc1)C(=O)N2 (centres unmarked) [Example 14, 1,3-Dihydro-5-(3,6-dihydro-6-methyl-2-oxo-2H-1,3,4-thiadiazin-5-yl)-3-(4-dimethylaminophenylimino)-2H -indol-2-one]
IC50 (canine cardiac PDE, CAM): 5600 nM | IC50 (canine cardiac PDE, CGI): 620 nM | max (percent change of maximal ATPase activity) [1]: 0 ± 3% | pCa (shift of the pCa giving 50% of the maximal control ATPase activity; Ca++ sensitivity) [1]: +0.12 ± 0.02

CC1SC(=O)NN=C1c1ccc2c(c1)C(=Nc1ccccc1)C(=O)N2 (centres unmarked) [Example 6, 1,3-6-Dihydro-5-(3,6-dihydro-6-methyl-2-oxo-2H-1,3,4-thiadiazin-5-yl)-3-phenylimino-2H-indol-2-one]
IC50 (canine cardiac PDE, CAM): > 300000 nM | IC50 (canine cardiac PDE, CGI): 1200 nM | max (percent change of maximal ATPase activity) [1]: -2 ± 6% | pCa (shift of the pCa giving 50% of the maximal control ATPase activity; Ca++ sensitivity) [1]: +0.38 ± 0.06

CC1SC(=O)NN=C1c1ccc2c(c1)C(=NOc1ccccc1)C(=O)N2 (centres unmarked) [Example 11, 1,3,-Dihydro-5-(3,6-dihydro-6-methyl-2-oxo-2H-1,3,4-thiadiazin-5-yl)-3-phenoxyimino-2H-indol-2-one]
IC50 (canine cardiac PDE, CAM): > 300000 nM | IC50 (canine cardiac PDE, CGI): 680 nM | max (percent change of maximal ATPase activity) [1]: 8 ± 2% | pCa (shift of the pCa giving 50% of the maximal control ATPase activity; Ca++ sensitivity) [1]: +0.36 ± 0.05

CC1SC(=O)NN=C1c1ccc2c(c1)C(=NNC1=NCCN1)C(=O)N2 (centres unmarked) [Example 13]
IC50 (canine cardiac PDE, CGI): 14000 nM | max (percent change of maximal ATPase activity) [1]: 2 ± 2% | pCa (shift of the pCa giving 50% of the maximal control ATPase activity; Ca++ sensitivity) [1]: +0.07 ± 0.02

CC1SC(=O)NN=C1c1ccc2c(c1)C(=NNC(=N)N)C(=O)N2 (centres unmarked) [Example 12, 5-(3,6-Dihydro-6-methyl-2-oxo-2H-1,3,4-thiadiazin-5-yl) -1H-indole-2,3-dione 3-[2-(aminomethanimino)hydrazone]]
IC50 (canine cardiac PDE, CGI): 1800 nM | max (percent change of maximal ATPase activity) [1]: -1 ± 2% | pCa (shift of the pCa giving 50% of the maximal control ATPase activity; Ca++ sensitivity) [1]: +0.08 ± 0.02

CC1SC(=O)NN=C1c1ccc2c(c1)C(=C(C#N)C#N)C(=O)N2 (centres unmarked) [Example 9, [5-(3,6-Dihydro-6-methyl-2-oxo-2H-1,3,4-thiadiazin-5-yl) -1,2-dihydro-2-oxo-3H-indol-3-ylidene]-propane-dinitrile]
IC50 (canine cardiac PDE, CAM): 31000 nM | IC50 (canine cardiac PDE, CGI): 2100 nM | max (percent change of maximal ATPase activity) [1]: -20 ± 3% | pCa (shift of the pCa giving 50% of the maximal control ATPase activity; Ca++ sensitivity) [1]: +0.05 ± 0.07

CC1SC(=O)NN=C1c1ccc2c(c1)C(=NNC(N)=S)C(=O)N2 (centres unmarked) [Example 4, 2-[2,3-Dihydro-5-(3,6-dihydro-6-methyl-2-oxo-2H-1,3,4-thiadiazin-5-yl)-2-oxo-1H-indol-3-ylidene]-hydrazine carbothioamide]
IC50 (canine cardiac PDE, CAM): > 300000 nM | IC50 (canine cardiac PDE, CGI): 440 nM

CC1SC(=O)NN=C1c1ccc2c(c1)C(=NN)C(=O)N2 (centres unmarked) [Example 7, 5-(3,6-Dihydro-6-methyl-2-oxo-2H-1,3,4-thiadiazin-5-yl)-1H -indole-2,3-dione 3-hydrazone]
IC50 (canine cardiac PDE, CAM): 42000 nM | IC50 (canine cardiac PDE, CGI): 2300 nM | max (percent change of maximal ATPase activity) [1]: -3 ± 5% | pCa (shift of the pCa giving 50% of the maximal control ATPase activity; Ca++ sensitivity) [1]: +0.17 ± 0.02

CC1SC(=O)NN=C1c1ccc2c(c1)C(=NNc1ccccc1C(F)(F)F)C(=O)N2 (centres unmarked) [Example 31, 5-(3,6-Dihydro-6-methyl-2-oxo-2H-1,3,4-thiadiazin-5-yl) -1H-indole-2,3-dione 3-[(2-trifluoromethyl)phenylhydrazone]]
max (percent change of maximal ATPase activity) [1]: 26 ± 7% | pCa (shift of the pCa giving 50% of the maximal control ATPase activity; Ca++ sensitivity) [1]: +0.43 ± 0.04 | AoBF (anaesthetised dog; 0.01 mg/kg): +11 ± 5% | AoBP (anaesthetised dog; 0.01 mg/kg): -8 ± 1% | H.R. (anaesthetised dog; 0.01 mg/kg): +8 ± 2% | dP/dt Max (anaesthetised dog; 0.01 mg/kg): +9 ± 3% | AoBF (anaesthetised dog; 0.03 mg/kg): +19 ± 8% | AoBP (anaesthetised dog; 0.03 mg/kg): -15 ± 1% | H.R. (anaesthetised dog; 0.03 mg/kg): +30 ± 4% | dP/dt Max (anaesthetised dog; 0.03 mg/kg): +44 ± 13% | AoBF (anaesthetised dog; 0.1 mg/kg): +13 ± 6% | AoBP (anaesthetised dog; 0.1 mg/kg): -23 ± 2% | H.R. (anaesthetised dog; 0.1 mg/kg): +39 ± 6% | dP/dt Max (anaesthetised dog; 0.1 mg/kg): +93 ± 13%

CC1SC(=O)NN=C1c1ccc2c(c1)C(=NNc1ccc(C(C)(C)C)cc1)C(=O)N2 (centres unmarked) [Example 24, 5-(3,6-Dihydro-6-methyl-2-oxo-2H-1,3,4-thiadiazin-5-yl) -1H-indole-2,3-dione 3-[4-(1,1-dimethylethyl)phenylhydrazone]]
max (percent change of maximal ATPase activity) [1]: -2 ± 5% | pCa (shift of the pCa giving 50% of the maximal control ATPase activity; Ca++ sensitivity) [1]: +0.49 ± 0.06

CC1SC(=O)NN=C1c1ccc2c(c1)C(=NNC(=O)c1ccncc1)C(=O)N2 (centres unmarked) [Example 39]
max (percent change of maximal ATPase activity) [1]: 3 ± 2% | pCa (shift of the pCa giving 50% of the maximal control ATPase activity; Ca++ sensitivity) [1]: +0.04 ± 0.02

CC1SC(=O)NN=C1c1ccc2c(c1)C(=NNc1ccc(C(=O)O)cc1)C(=O)N2 (centres unmarked) [Example 34]
max (percent change of maximal ATPase activity) [1]: 5 ± 2% | pCa (shift of the pCa giving 50% of the maximal control ATPase activity; Ca++ sensitivity) [1]: +0.40 ± 0.02
